Laboratory results from patent US10336762B2 (priority 2017, dated 2019).

How the values were obtained:
[1] = test system: TNFα; test: cells; format: cell-based, human; settings: Homo sapiens, Monocyte, LPS-stimulated human monocytes, TNFα content; read-out: EC50 TNF
[2] = target: IRAK4 enzyme (Homo sapiens (Human), UniProt Q9NWZ3); test: biochemical; format: biochemical; settings: IRAK4 enzyme, TR-FRET (HTRF), 500 μM ATP
IRAK4 enzyme, sequence (Q9NWZ3 whole entry): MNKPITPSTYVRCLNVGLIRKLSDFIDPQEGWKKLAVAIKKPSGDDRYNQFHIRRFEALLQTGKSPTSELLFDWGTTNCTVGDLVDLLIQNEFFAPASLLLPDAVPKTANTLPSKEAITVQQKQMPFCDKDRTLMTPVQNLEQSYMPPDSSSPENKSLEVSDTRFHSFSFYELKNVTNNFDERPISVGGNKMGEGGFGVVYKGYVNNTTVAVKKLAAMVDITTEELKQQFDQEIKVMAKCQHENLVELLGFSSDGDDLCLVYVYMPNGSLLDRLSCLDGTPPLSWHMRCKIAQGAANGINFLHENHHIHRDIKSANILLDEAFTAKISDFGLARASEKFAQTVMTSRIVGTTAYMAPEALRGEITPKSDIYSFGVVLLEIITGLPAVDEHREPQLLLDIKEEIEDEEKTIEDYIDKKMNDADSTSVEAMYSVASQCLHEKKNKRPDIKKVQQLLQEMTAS

`COC(=O)N[C@H]1CC[C@H](Nc2cc(-c3ccc4cc(C#N)cnn34)ncc2C(=O)NC[C@@H](F)C(C)(C)O)C1` [Example 750, methyl ((1S,3S)-3-((2-(3-cyanopyrrolo[1,2-b]pyridazin-7-yl)-5-(((R)-2-fluoro-3-hydroxy-3-methylbutyl)carbamoyl)pyridin-4-yl)amino)cyclopentyl) carbamate] showed an EC50 [1] of 198 nM and an IC50 [2] of 1 nM.
`COC(=O)N1CC[C@H](Nc2cc(-c3ccc4cc(C#N)cnn34)ncc2C(=O)NC[C@@H](F)C(C)(C)O)C1` [Example 751, (S)-methyl 3-((2-(3-cyano-pyrrolo[1,2-b]pyridazin-7-yl)-5-(((R)-2-fluoro-3-hydroxy-3-methylbutyl)carbamoyl)pyridin-4-yl)amino)pyrrolidine-1-carboxylate] showed an EC50 [1] of 333 nM and an IC50 [2] of 4 nM.
With `COC(=O)N1CC[C@@H](Nc2cc(-c3ccc4cc(C#N)cnn34)ncc2C(=O)NC[C@@H](F)C(C)(C)O)C1` [Example 752, (R)-methyl 3-((2-(3-cyano-pyrrolo[1,2-b]pyridazin-7-yl)-5-(((R)-2-fluoro-3-hydroxy-3-methylbutyl)carbamoyl)pyridin-4-yl)amino)pyrrolidine-1-carboxylate] the EC50 [1] was 80 nM and the IC50 [2] was less than 1 nM.
`CC(C)(O)CNC(=O)c1cnc(-c2ccc3cc(C#N)cnn23)cc1NC12CCC(O)(CC1)CC2` [Example 753, 6-(3-cyanopyrrolo[1,2-b]pyridazin-7-yl)-N-(2-hydroxy-2-methylpropyl)-4-((4-hydroxybicyclo[2.2.2]octan-1-yl)amino) nicotinamide] was tested, and the EC50 [1] was 225 nM and the IC50 [2] was 7 nM.
In the case of `COC(=O)NC1CC2(C1)CC(Nc1cc(-c3ccc4cc(C#N)cnn34)ncc1C(=O)NC[C@@H](F)C(C)(C)O)C2` (stereo partly drawn) [Example 754, (R)-methyl (6-((2-(3-cyanopyrrolo[1,2-b]pyridazin-7-yl)-5-((2-fluoro-3-hydroxy-3-methylbutyl)carbamoyl)pyridin-4-yl)amino)spiro[3.3]heptan-2-yl)carbamate], the EC50 [1] is reported as 20 nM and the IC50 [2] is reported as less than 1 nM.
In the case of `CC(C)(O)[C@H](F)CNC(=O)c1cnc(-c2ccc3cc(C#N)cnn23)cc1Nc1cnn(-c2ccccn2)c1` [Example 755, (R)-6-(3-cyanopyrrolo[1,2-b]pyridazin-7-yl)-N-(2-fluoro-3-hydroxy-3-methylbutyl)-4-((1-(pyridin-2-yl)-1H-pyrazol-4-yl)amino)nicotinamide], the EC50 [1] is reported as 16 nM and the IC50 [2] is reported as 1 nM.
Work on `COC(=O)NCC1(F)CC(Nc2cc(-c3ccc4cc(C#N)cnn34)ncc2C(=O)NC[C@@H](F)C(C)(C)O)C1` (stereo partly drawn) [Example 758, (R)-methyl ((3-((2-(3-cyanopyrrolo[1,2-b]pyridazin-7-yl)-5-((2-fluoro-3-hydroxy-3-methylbutyl)carbamoyl)pyridin-4-yl)amino)-1-fluorocyclobutyl)methyl)carbamate] yielded an EC50 [1] of 11 nM and an IC50 [2] of 1 nM.
`CC(C)(O)[C@H](F)CNC(=O)c1cnc(-c2ccc3cc(C#N)cnn23)cc1Nc1cnn(-c2ccncc2)c1` [Example 761, (R)-6-(3-cyanopyrrolo[1,2-b]pyridazin-7-yl)-N-(2-fluoro-3-hydroxy-3-methylbutyl)-4-((1-(pyridin-4-yl)-1H-pyrazol-4-yl)amino) nicotinamide] was tested, and the EC50 [1] was 26 nM and the IC50 [2] was less than 1 nM.
In the case of `CC(C)(O)[C@H](F)CNC(=O)c1cnc(-c2ccc3cc(C#N)cnn23)cc1Nc1ccc(-n2cncn2)cc1` [Example 762, (R)-4-((4-(1H-1,2,4-triazol-1-yl)phenyl)amino)-6-(3-cyanopyrrolo[1,2-b]pyridazin-7-yl)-N-(2-fluoro-3-hydroxy-3-methylbutyl)nicotinamide], the EC50 [1] is reported as 7 nM and the IC50 [2] is reported as less than 1 nM.
`CC(C)(O)[C@H](F)CNC(=O)c1cnc(-c2ccc3cc(C#N)cnn23)cc1NC1CC2(CNC(=O)O2)C1` (stereo partly drawn) [Example 763, (R)-6-(3-cyanopyrrolo[1,2-b]pyridazin-7-yl)-N-(2-fluoro-3-hydroxy-3-methylbutyl)-4-((6-oxo-5-oxa-7-azaspiro[3.4]octan-2-yl)amino)nicotinamide] was tested, and the EC50 [1] was 155 nM and the IC50 [2] was less than 1 nM.
Molecule `CC(C)(O)[C@H](F)CNC(=O)c1cnc(-c2ccc3cc(C#N)cnn23)cc1Nc1ccc(-n2cncn2)nc1` [Example 766, (R)-4-((6-(1H-1,2,4-triazol-1-yl)pyridin-3-yl)amino)-6-(3-cyanopyrrolo[1,2-b]pyridazin-7-yl)-N-(2-fluoro-3-hydroxy-3-methyl-butyl)nicotinamide] has an EC50 [1] of 38 nM and an IC50 [2] of less than 1 nM.
In the case of `CC(C)(O)[C@H](F)CNC(=O)c1cnc(-c2ccc3cc(C#N)cnn23)cc1Nc1ccc(-n2ccnc2)cc1` [Example 767, (R)-4-((4-(1H-imidazol-1-yl)phenyl)amino)-6-(3-cyanopyrrolo[1,2-b]pyridazin-7-yl)-N-(2-fluoro-3-hydroxy-3-methylbutyl)nicotinamide], the EC50 [1] is reported as 35 nM and the IC50 [2] is reported as less than 1 nM.
With `CC(C)(O)[C@H](F)CNC(=O)c1cnc(-c2ccc3cc(C#N)cnn23)cc1Nc1ccc(-n2ccnc2)nc1` [Example 768, (R)-4-((6-(1H-imidazol-1-yl)pyridin-3-yl)amino)-6-(3-cyanopyrrolo[1,2-b]pyridazin-7-yl)-N-(2-fluoro-3-hydroxy-3-methyl-butyl)nicotinamide] the EC50 [1] was 24 nM and the IC50 [2] was less than 1 nM.
Molecule `CC(C)(O)[C@H](F)CNC(=O)c1cnc(-c2ccc3cc(C#N)cnn23)cc1Nc1ccc(-n2cccn2)cc1` [Example 769, (R)-4-((4-(1H-pyrazol-1-yl)phenyl)amino)-6-(3-cyanopyrrolo[1,2-b]pyridazin-7-yl)-N-(2-fluoro-3-hydroxy-3-methylbutyl)nicotinamide] has an EC50 [1] of 44 nM and an IC50 [2] of less than 1 nM.
`CC(C)(O)[C@H](F)CNC(=O)c1cnc(-c2ccc3cc(C#N)cnn23)cc1Nc1ccc(-n2cccn2)nc1` [Example 770, (R)-4-((6-(1H-pyrazol-1-yl)pyridin-3-yl)amino)-6-(3-cyanopyrrolo[1,2-b]pyridazin-7-yl)-N-(2-fluoro-3-hydroxy-3-methyl-butyl)nicotinamide] was tested, and the EC50 [1] was 50 nM and the IC50 [2] was less than 1 nM.
In the case of `CC(C)(O)[C@H](F)CNC(=O)c1cnc(-c2ccc3cc(C#N)cnn23)cc1Nc1ccc(-c2nncs2)cc1` [Example 771, (R)-4-((4-(1,3,4-thiadiazol-2-yl)phenyl)amino)-6-(3-cyanopyrrolo[1,2-b]pyridazin-7-yl)-N-(2-fluoro-3-hydroxy-3-methylbutyl)nicotinamide], the EC50 [1] is reported as 37 nM and the IC50 [2] is reported as less than 1 nM.
In the case of `CC(C)(O)[C@H](F)CNC(=O)c1cnc(-c2ccc3cc(C#N)cnn23)cc1Nc1ccc(-n2cnnc2)cc1` [Example 772, (R)-4-((4-(4H-1,2,4-triazol-4-yl)phenyl)amino)-6-(3-cyanopyrrolo[1,2-b]pyridazin-7-yl)-N-(2-fluoro-3-hydroxy-3-methylbutyl)nicotinamide], the EC50 [1] is reported as 14 nM and the IC50 [2] is reported as less than 1 nM.
With `CC(C)(O)[C@H](F)CNC(=O)c1cnc(-c2ccc3cc(C#N)cnn23)cc1Nc1ccc(-c2ccon2)cc1` [Example 773, (R)-6-(3-cyanopyrrolo[1,2-b]pyridazin-7-yl)-N-(2-fluoro-3-hydroxy-3-methylbutyl)-4-((4-(isoxazol-3-yl)phenyl)amino) nicotinamide] the EC50 [1] was 43 nM and the IC50 [2] was 1 nM.
Work on `CC(C)(O)[C@H](F)CNC(=O)c1cnc(-c2ccc3cc(C#N)cnn23)cc1Nc1ccc(-c2ccon2)nc1` [Example 775, (R)-6-(3-cyanopyrrolo[1,2-b]pyridazin-7-yl)-N-(2-fluoro-3-hydroxy-3-methylbutyl)-4-((6-(isoxazol-3-yl)pyridin-3-yl)amino)nicotinamide] yielded an EC50 [1] of 25 nM and an IC50 [2] of less than 1 nM.
`CC(C)(O)[C@H](F)CNC(=O)c1cnc(-c2ccc3cc(C#N)cnn23)cc1N[C@H]1C[C@H](Cn2cncn2)C1` [Example 776, 4-(((1r,3R)-3-((1H-1,2,4-triazol-1-yl)methyl)cyclo-butyl)amino)-6-(3-cyano-pyrrolo[1,2-b]pyridazin-7-yl)-N-((R)-2-fluoro-3-hydroxy-3-methylbutyl) nicotinamide] gave an EC50 [1] of 32 nM and an IC50 [2] of 1 nM.
Molecule `CC(C)(O)[C@H](F)CNC(=O)c1cnc(-c2ccc3cc(C#N)cnn23)cc1N[C@H]1CC[C@H](c2ccon2)CC1` [Example 777, 6-(3-cyanopyrrolo[1,2-b]pyridazin-7-yl)-N-((R)-2-fluoro-3-hydroxy-3-methylbutyl)-4-(((1r,4R)-4-(isoxazol-3-yl)cyclohexyl)amino)nicotinamide] has an EC50 [1] of 15 nM and an IC50 [2] of less than 1 nM.
`CC(C)(O)[C@H](F)CNC(=O)c1cnc(-c2ccc3cc(C#N)cnn23)cc1Nc1ccc(-n2nccn2)nc1` [Example 778, (R)-4-((6-(2H-1,2,3-triazol-2-yl)pyridin-3-yl)amino)-6-(3-cyanopyrrolo[1,2-b]pyridazin-7-yl)-N-(2-fluoro-3-hydroxy-3-methyl-butyl)nicotinamide] was tested, and the EC50 [1] was 51 nM and the IC50 [2] was less than 1 nM.
Work on `CC(C)(O)[C@H](F)CNC(=O)c1cnc(-c2ccc3cc(C#N)cnn23)cc1N[C@H]1CC[C@H](n2cncn2)CC1` [Example 779, 4-(((1r,4R)-4-(1H-1,2,4-triazol-1-yl)cyclohexyl)amino)-6-(3-cyano-pyrrolo[1,2-b]pyridazin-7-yl)-N-((R)-2-fluoro-3-hydroxy-3-methylbutyl) nicotinamide] yielded an EC50 [1] of 28 nM and an IC50 [2] of less than 1 nM.
`CC(C)(O)[C@H](F)CNC(=O)c1cnc(-c2ccc3cc(C#N)cnn23)cc1NC12CCC(N3CCOCC3)(CC1)CC2` [Example 780, (R)-6-(3-cyanopyrrolo[1,2-b]pyridazin-7-yl)-N-(2-fluoro-3-hydroxy-3-methylbutyl)-4-((4-morpholinobicyclo[2.2.2]octan-1-yl)amino)nicotinamide] was tested, and the EC50 [1] was 38 nM and the IC50 [2] was 1 nM.
In the case of `CC(C)(O)[C@H](F)CNC(=O)c1cnc(-c2ccc3cc(C#N)cnn23)cc1NC1CCC2(CC1)COC2` [Example 781, (R)-4-(2-oxaspiro[3.5]nonan-7-ylamino)-6-(3-cyanopyrrolo[1,2-b]pyridazin-7-yl)-N-(2-fluoro-3-hydroxy-3-methyl-butyl)nicotinamide], the EC50 [1] is reported as 90 nM and the IC50 [2] is reported as less than 1 nM.
